Article PMC11472058, “Trinucleotide cap analogs with triphosphate chain modifications: synthesis, properties, and evaluation as mRNA capping reagents” (Nucleic Acids Research, 2024)

What was measured:
human eIF4E1a = biological target: T1, human eIF4E1a (Homo sapiens, UniProt P06730); experiment: Fluorescence quenching titration (FQT) binding assay with eIF4E; details: for Kd: fluorescence quenching titration, 20 °C, pH 7.2, average of triplicates ± SD, read-out: heIF4E1a KD
T1 construct: made in house; host or cells: E. coli Rosetta 2 (DE3)pLysS
Procedure: The human eIF4E1a protein was expressed without affinity tag in E. coli Rosseta 2 (DE3)pLysS strain (Novagen) under conditions leading to accumulation of the produced protein in inclusion bodies ([48]). The protein was extracted from inclusion bodies with buffer containing 6 M guanidine hydrochloride, refolded by one-step dialysis against 50 mM HEPES/KOH (pH 7.2), 100 mM KCl, 0.5 mM EDTA, 2 mM DTT, and purified by ion exchange chromatography on HiTrap SP HP 5 ml column (GE Healthcare) using salts gradient. Finally, protein was filtered using Ultrafree MC-HV Centrifugal PVDF filters with 0.45 μm membrane pore (Millipore) to remove protein aggregates and its concentration was determined spectrophotometrically assuming the theoretical extinction coefficient ϵ280nm = 52 940 L mol^−1cm^−1—calculated from amino acid composition using algorithm on ExPASy Server.
Fluorescence titration measurements were carried out on a LS-55 spectrofluorometer (Perkin Elmer Co., Norwalk, CT, USA) in a quartz semi-micro cuvette (Hellma, Germany) with optical lengths 4 mm and 10 mm for absorption and emission, respectively, which was thermostated at 20.0 ± 0.2 °C. The titrations were performed in 50 mM Hepes/KOH pH 7.2, 100 mM KCl, 0.5 mM EDTA and 1 mM DTT by adding 1 μl aliquots of increasing concentrations of the cap solutions to 1.4 ml of 0.1 μM eIF4E1a solution. The eIF4E1a fluorescence was excited at 280 nm and the fluorescence intensity was monitored at a single wavelength 340 nm. The measured fluorescence intensities were corrected for dilution (<4%) and for the inner filter effect. Association equilibrium constants (Kas) were obtained by fitting the theoretical curve for fluorescence intensity (F) upon total concentration of cap analogs ([L]) to the titration data according to the equation: […]
with the concentration of the cap analogs–eIF4E1a complex [cx] given by:
where Δϕ stands for the difference between the fluorescence efficiencies of the apo- and cap analog bound proteins; ϕlig-free is the fluorescence efficiency of the free cap analog; F(0) is the initial fluorescence, and Pact is the total concentration of the active protein ([49]). The final KAS values were calculated as a weighted average from three independent titrations and represented as the KD values. Numerical least-squares nonlinear regression analysis was performed using ORIGIN 2021 from Microcal Software Inc., USA.
Recognition of the mRNA 5′ cap by translation initiation factor 4E (eIF4E) is considered to be the rate-limiting step for the entire translation process ([63],[64]), therefore we investigated the affinity of novel trinucleotide cap analogs to the canonical human eIF4E1a protein by fluorescence quenching titration (FQT; Table 1 column 1, Figure 3) ([65]). As a reference, we determined the dissociation constant between heIF4E1a and the trinucleotide cap-1 structure m^7GpppAmpG, which was equal to 42 nM and very close to the analogous value previously determined for mouse Δ27NeIF4E (46 nM) ([12]). In the case of all modifications tested, the KD values for cap-heIF4E1a complexes are consistent with the results previously obtained for dinucleotide counterparts and murine eIF4E protein, although the magnitude of the modification effect is generally lower. The most tightly bound tetraphosphate analogs (compounds 10–12) show KD values of 6–7 nM, which means that their affinity is about 6-fold higher compared to the triphosphate counterparts. The affinities decrease upon CH2 or CCl2 modification of the tetraphosphate bridge (compounds 13–16), but they are still 4–5 times higher than for the triphosphate analogs with the same adenosine methylation pattern.

Human Dcp2 = biological target: T2, Human Dcp2 (Homo sapiens, UniProt Q8IU60); experiment: RNA decapping assay with recombinant hDcp2; assay type: biochemical; details: for Susceptibility to hDcp2 (@30 min): fraction of decapped RNA after 30 min of incubation with hDcp2, 27-nt RNA capped with the analog, 37 °C, triplicates ± SD
T2 construct: made in house; host or cells: E. coli
Procedure: Human Dcp2 was expressed in E. coli and purified as described previously ([52]). Short 27 nt-capped RNAs (24.2 ng) were diluted with decapping buffer (50 mM Tris–HCl pH 8.0, 50 mM NH4Cl, 0.01% NP-40, 1 mM DTT, 5 mM MgCl2 and 2 mM MnCl2; 2.9 μl of freshly prepared 10 × Buffer) and the final volume was adjusted to 29 μl with ultrapure RNase free water. 4.2 ng (5 μl) of the solution was taken out as time zero reference and diluted with 5 μl loading dye (5 M urea, 44% formamide, 20 mM EDTA, 0.03% bromophenol blue, 0.03% xylene cyanol). The remaining RNAs (20 ng/24 μl) were subjected to 10 nM hDcp2 (250 nM, 1 μl) and the mixtures were incubated at 37°C for 1 h. At defined time points (5, 15, 30 and 60 min), 4 ng of RNA (5 μl) were taken out and the reactions were quenched by adding an equal volume of loading dye. RNAs were resolved electrophoretically on denaturing 15% acrylamide:bisacrylamide 19:1/7 M urea/1 × TBE gel, stained with SYBR Gold (Invitrogen) and visualized using a Typhoon FLA 9500 (GE Healthcare). The decapping progress was determined for each time point by densitometry analysis of the gels, as a ratio between the intensity of the band corresponding to capped RNA and the sum of the intensity of bands from capped and uncapped RNAs. The percentages of remaining capped RNA were then plotted as a function of time.
The RNAs used to determine the capping efficiencies were also useful to study the susceptibility of capped RNA to decapping by hDcp2, the catalytic subunit of the major human mRNA decapping complex Dcp1/Dcp2, which releases m^7GDP and 5′-monophosphorylated RNA (in this case the 26-nt pApG-RNA24; Figure 4C). The progress of decapping at different time points (5, 15, 30 and 60 min) was monitored by HR-PAGE followed by densitometric analysis of the gels (Figure 4C, triplicates of gels are shown in Supplementary Figure S2), and the fraction of remaining capped RNA (27-nt) was plotted as a function of time (Figure 4D-G). […] For better visualization, the data of modified capped RNAs were grouped according to the type of modification present at the 5′ end and presented in separate graphs (Figure 4E–G). To quantify the relative susceptibility to hDcp2, we compared the decapping levels at the 30 min time point (Table 1). For RNAs capped with β-S-triphosphate analogs (1–6, Figure 4E, Table 1), we observed a significant difference in susceptibility to hDcp2 between RP and SP isomers, independent of the methylation pattern.

T1 sequence (P06730 whole entry): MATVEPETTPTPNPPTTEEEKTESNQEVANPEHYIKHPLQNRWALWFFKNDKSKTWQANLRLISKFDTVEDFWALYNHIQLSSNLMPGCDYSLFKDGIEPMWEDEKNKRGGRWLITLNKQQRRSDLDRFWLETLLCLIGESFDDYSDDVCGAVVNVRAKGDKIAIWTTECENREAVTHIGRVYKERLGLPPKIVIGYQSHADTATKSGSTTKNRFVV

Row | Compound | Kd (human eIF4E1a) [nM] | Susceptibility to hDcp2 (@30 min) (Human Dcp2) | effect of modification on binding affinity for heIF4E1a (in words) (human eIF4E1a; compared to corresponding triphosphates) | susceptibility of capped RNA to decapping by hDcp2 (in words) (Human Dcp2; 27-nt capped RNA, up to 60 min)
1 | C[n+]1cn([C@@H]2O[C@H](COP(=O)(O)O[P@@](=O)([S-])OP(=O)(O)OC[C@H]3O[C@@H](n4cnc5c(N)ncnc54)[C@H](O)[C@@H]3OP(=O)(O)OC[C@H]3O[C@@H](n4cnc5c(=O)[nH]c(N)nc54)[C@H](O)[C@@H]3O)[C@@H](O)[C@H]2O)c2nc(N)nc(O)c21 [Compound 1, m^7GppSpApG] | 12.6 ± 0.8 | 0.81 ± 0.16 | – | –
2 | C[n+]1cn([C@@H]2O[C@H](COP(=O)(O)O[P@](=O)([S-])OP(=O)(O)OC[C@H]3O[C@@H](n4cnc5c(N)ncnc54)[C@H](O)[C@@H]3OP(=O)(O)OC[C@H]3O[C@@H](n4cnc5c(=O)[nH]c(N)nc54)[C@H](O)[C@@H]3O)[C@@H](O)[C@H]2O)c2nc(N)nc(O)c21 [Compound 2, m^7GppSpApG] | 15.9 ± 0.9 | 0.31 ± 0.09 | – | –
3 | COC1C(OP(=O)(O)OCC2OC(n3cnc4c(=O)[nH]c(N)nc43)C(O)C2O)C(COP(=O)(O)OP(=O)([S-])OP(=O)(O)OCC2OC(n3c[n+](C)c4c(O)nc(N)nc43)C(O)C2O)OC1n1cnc2c(N)ncnc21 (stereo not shown) [Compound 3, m^7GppSpAmpG] | 14 ± 0.8 | 0.82 ± 0.09 | – | –
4 | COC1C(OP(=O)(O)OCC2OC(n3cnc4c(=O)[nH]c(N)nc43)C(O)C2O)C(COP(=O)(O)OP(=O)([S-])OP(=O)(O)OCC2OC(n3c[n+](C)c4c(O)nc(N)nc43)C(O)C2O)OC1n1cnc2c(N)ncnc21 (stereo not shown) [Compound 4, m^7GppSpAmpG] | 16.6 ± 1.1 | 0.32 ± 0.10 | – | –
5 | CNc1ncnc2c1ncn2[C@@H]1O[C@H](COP(=O)(O)O[P@@](=O)([S-])OP(=O)(O)OC[C@H]2O[C@@H](n3c[n+](C)c4c(O)nc(N)nc43)[C@H](O)[C@@H]2O)[C@@H](OP(=O)(O)OC[C@H]2O[C@@H](n3cnc4c(=O)[nH]c(N)nc43)[C@H](O)[C@@H]2O)[C@H]1OC [Compound 6, m^7GppSp^m6AmpG] | 21.7 ± 0.6 | 0.15 ± 0.10 | – | –
6 | C[n+]1cn([C@@H]2O[C@H](COP(=O)(O)OP(=O)(O)OP(=O)([O-])SC[C@H]3O[C@@H](n4cnc5c(N)ncnc54)[C@H](O)[C@@H]3OP(=O)(O)OC[C@H]3O[C@@H](n4cnc5c(=O)[nH]c(N)nc54)[C@H](O)[C@@H]3O)[C@@H](O)[C@H]2O)c2nc(N)nc(O)c21 [Compound 7, m^7Gppp^5’SApG] | 31.4 ± 1.9 | 0.60 ± 0.15 | virtually no effect on binding affinity | –
7 | CO[C@@H]1[C@H](OP(=O)(O)OC[C@H]2O[C@@H](n3cnc4c(=O)[nH]c(N)nc43)[C@H](O)[C@@H]2O)[C@@H](COP(=O)([O-])OP(=O)(O)CP(=O)(O)OP(=O)(O)OC[C@H]2O[C@@H](n3c[n+](C)c4c(O)nc(N)nc43)[C@H](O)[C@@H]2O)O[C@H]1n1cnc2c(N)ncnc21 [Compound 16, m^7GppCH2ppAmpG] | 12.1 ± 0.5 | 0.27 ± 0.07 | – | significantly reduced the susceptibility to decapping
